In experiment [1] the target is T1, Aspartate aminotransferase, cytoplasmic (Homo sapiens, UniProt P17174). The experiment in a line: Inhibition of GOT1 (unknown origin).
Experiment [2] addresses T1, Aspartate aminotransferase, cytoplasmic. The experiment in a line: Binding affinity to GOT1 (unknown origin) assessed as dissociation constant by microscale thermophoresis assay. (In general: In MST a laser heats a spot of the sample, and binding alters the fluorescence response.)
Experiment [3] has the same target. The experiment in a line: Noncompetitive inhibition of GOT1 (unknown origin) using aspartic acid as substrate assessed as inhibition constant by Michaelis-Menten equation based kinetic analysis.
For experiment [4] the target is unchanged. The experiment in a line: Noncompetitive inhibition of GOT1 (unknown origin) using alpha-Ketoglutaric acid as substrate assessed as inhibition constant by Michaelis-Menten equation based kinetic analysis.
The target is the same in experiment [5]. The experiment in a line: Inhibition of GOT1 (unknown origin) using aspartic acid and alpha-ketoglutaric acid as substrates assessed as reduction in absorbance of NADH incubated for 20 mins in presence of MDH1 and NADH by HTS assay.
Experiment [6] shares this target. The experiment in a line: Inhibition of human recombinant GOT1 using aspartic acid and alpha-ketoglutaric acid as substrates incubated in presence of MDH1 and NADH.
Experiment [7] shares this target. The experiment in a line: Inhibition of C-terminal His6-tagged human recombinant GOT1 expressed in Escherichia coli BL21 (DE3) cells using aspartic acid and alpha-ketoglutaric acid as substrates incubated in presence of MDH1 and NADH.

Structures are written as SMILES. Structures can show the parent of a compound that is named as a salt.

The text below walks through data of ChEMBL document CHEMBL5104128, “The discovery of a non-competitive GOT1 inhibitor, hydralazine hydrochloride, via a coupling reaction-based high-throughput screening assay” (Bioorg Med Chem Lett, 2022).

Usually IC50 stands for the midpoint of a concentration-inhibition curve. By Kd is commonly meant the constant that tells how readily two partners part at equilibrium. For orientation: Ki means a dissociation constant, usually derived from enzyme kinetics or from competition with a known ligand.

T1 sequence (P17174 whole entry): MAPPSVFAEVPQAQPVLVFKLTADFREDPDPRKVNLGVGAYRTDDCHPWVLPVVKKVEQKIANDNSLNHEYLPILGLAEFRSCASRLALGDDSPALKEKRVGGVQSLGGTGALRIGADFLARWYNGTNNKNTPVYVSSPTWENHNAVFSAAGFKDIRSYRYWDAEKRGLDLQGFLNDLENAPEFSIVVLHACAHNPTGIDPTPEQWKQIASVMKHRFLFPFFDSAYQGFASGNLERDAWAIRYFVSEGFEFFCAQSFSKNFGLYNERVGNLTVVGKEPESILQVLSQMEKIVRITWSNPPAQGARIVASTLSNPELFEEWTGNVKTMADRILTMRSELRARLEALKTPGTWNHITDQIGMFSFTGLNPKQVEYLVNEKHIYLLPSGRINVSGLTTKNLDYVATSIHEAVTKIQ

Molecule `NNc1nncc2ccccc12` [HYDRALAZINE HYDROCHLORIDE] returned an IC50 in experiment [1] of 26.6 µM. Besides, the dissociation constant Kd in experiment [2] stood at 16.5 µM. The Ki in experiment [3] is 14.7 µM; in experiment [4] it was 20.2 µM. `NNc1nnc(Cl)c2ccccc12`: the IC50 in experiment [5] was 65.4 µM. The molecule `NC1Cc2ccccc2N(O)C1=O` (centres undefined) came in with an IC50 in experiment [1] of 8 µM. Regarding `NNc1nnc(NN)c2ccccc12` [DIHYDRALAZINE], the IC50 in experiment [5] is > 100 µM.

In the case of `Nc1cccc2cnncc12`, in experiment [5], the IC50 is > 100 µM. In experiment [1], `O=C1Cc2cc(CCN3CCN(c4nsc5ccccc45)CC3)c(Cl)cc2N1` [ZIPRASIDONE] displayed an IC50 of 5.39 µM. In the case of `NNc1nncc2ccccc12` [HYDRALAZINE], in experiment [5], the IC50 stood at 26.6 µM.

For `CC(C)=CCc1cc(/C=C2\OC(=O)C(c3cc(CC=C(C)C)c(O)cc3O)=C2O)ccc1O`, the IC50 in experiment [6] was found to be 2.92 µM.

With `NNc1cccnn1`, the IC50 in experiment [5] turned out to be 29.4 µM. Take `COc1ccc(-c2ccc3cc(C(=O)O)ccc3c2)cc1C12CC3CC(CC(C3)C1)C2` [ADAPALENE]: the IC50 in experiment [7] came to 21.8 µM. Take `Nc1cccnn1`: the IC50 in experiment [5] was > 100 µM.
